Source: patent US20100004159A1, “SUBSTITUTED IMIDAZOLONE DERIVATIVES, PREPARATIONS AND USES” (GENFIT, priority 2006, published 2010)

What was measured:
[1] = target: T1, angiotensin II AT1 receptor (Oryctolagus cuniculus, UniProt P34976); assay: Ex vivo agonist/antagonist activity on isolated rabbit thoracic aorta rings; conditions: 0.3, 3 and 30 μM; for agonist activity (contraction): non-treated rabbit thoracic aorta; for antagonist activity (inhibition of contractile response to angiotensin II): rabbit thoracic aorta previously exposed to angiotensin II 0.003 μM
T1 construct: tissue CEREP; host or cells: rabbit thoracic aorta rings
T1 sequence (P34976 1-359): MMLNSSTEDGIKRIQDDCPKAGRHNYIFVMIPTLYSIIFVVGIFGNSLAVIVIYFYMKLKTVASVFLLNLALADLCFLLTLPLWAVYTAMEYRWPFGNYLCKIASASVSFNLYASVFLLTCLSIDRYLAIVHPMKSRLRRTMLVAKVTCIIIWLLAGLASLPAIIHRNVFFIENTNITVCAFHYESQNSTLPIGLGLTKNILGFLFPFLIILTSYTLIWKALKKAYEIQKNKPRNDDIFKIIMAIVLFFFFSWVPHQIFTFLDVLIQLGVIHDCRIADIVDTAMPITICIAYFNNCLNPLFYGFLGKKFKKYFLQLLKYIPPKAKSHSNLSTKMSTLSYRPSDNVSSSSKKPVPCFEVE
Experimental: This activity is either agonist or antagonist and was evaluated ex vivo on isolated organs. Agonist activity corresponds to tissue contraction. Antagonist activity corresponds to tissue dilatation.
The ex vivo test was performed at the CEREP (Celle L'Evescault, France (86)) following a protocol based on Pendleton et al. (Pendleton R G et al.,1989). Rabbit thoracic aorta rings with intact endothelium were suspended in baths for organs containing an oxygenated physiologic saline solution (95% O2 and 5% CO2) and preheated (37° C.) having the following composition (mM): NaCl 118.0, KCl 4.7, MgSO4 1.2, CaCl2 2.5, KH2PO4 1.2, NaHCO3 25.0, and glucose 11.0 (pH 7.4).
Benextramine (1 μM), propranolol (1 μM), pyrilamine (1 μM), atropine (1 μM), methysergide (1 μM), and captopril (0.1 μM) were also used in all carried out experiments to block respectively α-adrenergic, β-adrenergic, histaminic H1 muscarinic, and 5-HT2 receptors as well as to prevent peptide degradation. The tissues were bound to a force sensor suitable for isometric tension recording. They were stretched to a resting tension of 4 g, then stabilized for 60 minutes. During the stabilization, they were washed several times and the tension was adjusted. The experiments were carried out using semi-automatic systems of isolated organs with eight organ baths and multichannel data acquisition.
The tissues were exposed to a submaximal concentration of the reference agonist (angiotensin II at 0.003 μM) to verify the response and obtain a control contractile response.
After several washing operations and after having recovered the basal tone, the tissues were exposed to increasing concentrations of compounds according to the invention or the same agonist. The different concentrations were added cumulatively, each one was left in contact with the tissues until a stable response was reached and for a maximum of 30 minutes. If an agonist type response (contraction) was registered, the reference antagonist (Saralasine at 0.01 μM) was tested regarding the highest concentration of the compounds according to the invention to confirm the involvement of the AT1 receptors in the response.
After stabilization of the contraction induced by angiotensin II, increasing concentrations of compounds according to the invention or of the reference antagonist (Saralasine) were added cumulatively. Each concentration was left in contact with the tissues until a stable response was observed and for a maximum of 30 minutes.
The inhibiting effect of the compounds according to the invention on the contraction induced by the angiotensin 11 indicates antagonist activity on AT1 receptors.

[2] = tested on: PPARs target genes; assay: Expression of PPAR target genes by quantitative RT-PCR in db/db mouse tissue; type: in vivo; conditions: db/db mice, 50 mpk for 28 days
Experimental: Samples of hepatic tissue and adipose epididymal tissue were taken and frozen immediately in liquid nitrogen then conserved at −80° C. for later analysis.
Total RNA was extracted from liver fragments by using a NucleoSpine 96 RNA kit (Macherey Nagel, Hoerdt, France) according to the manufacturer's instructions.
The total RNA of the adipose tissue was extracted from tissue fragments with a method using guanidine thiocyanate. The tissues were briefly homogenized in 5 mL of a lysis buffer (guanidine thiocyanate 4M, EDTA pH8 10 mM, Tris HCl pH 7.5 50 mM and b-mercaptoethanol 1.4%) using polytron. To separate the layers, 500 μL of sodium acetate 2M pH4, 5 mL of phenol, and 2 mL of a mixture of chloroform/isoamylic alcohol (49:1) were added. After centrifugation, the aqueous layer was collected and the RNA was precipitated in the presence of isopropanol. After a second precipitation, the RNA was washed with ethanol 70°, dried, then suspended again in an volume of water free of RNase. A step of purification/DNase I treatment of the RNA was then carried out by using NucleoSpin® 96 RNA kit (Macherey-Nagel) according to the manufacturer's instructions. 1 μg of total RNA (quantified by using the Ribogreen RNA quantification kit (Molecular Probes)) was then reverse-transcribed into cDNA by means of a 1 hour reaction at 37° C. in a total volume of 20 μl containing a buffer 1× (Sigma), 1.5 mM of DTT, 0.18 mM, of dNTPs (Promega), 200 ng of pdN6 (Amersham), 30 U of RNase inhibitor (Sigma), and 1 μl of MMLV-RT (Sigma). The quantitative PCR experiments were carried out using the MyiQ Single-Color Real-Time PCR Detection System (Biorad, Marnes-la-Coquette, France) and were performed using the iQ SYBR Green Supermix kit according to the manufacturer's recommendations, in 96-well plates in 5 μl of a diluted reverse transcription solution at a hybridization temperature of 55° C. Primer pairs specific to the studied genes were used:
The quantity of emitted fluorescence is directly proportional to the quantity of cDNA present at the beginning of the reaction and amplified during the PCR. For each target studied, a range of solutions is performed with successive dilutions of a mixture made up of a few μl of different reverse-transcription solutions. The relative levels of expression of each target are thus determined by using efficiency curves obtained with the points relative to the range.
The expression levels of the genes of interest were then normalized, in the hepatic tissue with respect to the level expression of reference gene 36B4 (whose specific primers are: sense primer: 5′-[…]-3′ (SEQ ID NO: 15) and antisense primer: 5′-[…]-3′ (SEQ ID NO: 16)), and in the adipose tissue with respect to reference gene 18S (whose specific primers are: sense primer: 5′-[…]-3′ (SEQ ID NO: 17) and antisense primer: 5′-[…]-3′ (SEQ ID NO: 18)). The induction factor was then calculated for each sample. The higher the induction factor is, the more the compound promotes gene expression. The final result is represented as the average of the induction values within each experimental group.

CCCCC1=NC2(CCCCC2)C(=O)N1Cc1ccc(-c2cccc(OC(C)(C)C(=O)O)c2)cc1 [Compound 21, 2-butyl-1-[(3′-((1-carboxy-1,1-dimethylmethyl)oxy)biphenyl-4-yl)methyl]-4-spirocyclohexyl-1H-imidazol-5(4H)-one]
agonist activity (contraction) [1]: do not induce contraction
antagonist activity (inhibition of contractile response to angiotensin II) [1]: inhibiting effect of the contractile response of the reference agonist

CCCCC1=NC2(CCCC2)C(=O)N1Cc1ccc(-c2cccc(OC(C)(C)C(=O)O)c2)cc1 [Compound 1, 2-butyl-1-[(3′-((1-carboxy-1,1-dimethylmethyl)oxy)biphenyl-4-yl)methyl]-4-spirocyclopentyl-1H-imidazol-5(4H)-one]
hepatic expression of the gene coding for CPT1 b [2]: significant increase
hepatic expression of the gene coding for PDK-4 [2]: significant increase
expression of the gene coding for ApoCIII ([2]; liver): significant decrease
expression of the gene coding for FBb ([2]; liver): significant decrease
agonist activity (contraction) [1]: do not induce contraction
antagonist activity (inhibition of contractile response to angiotensin II) [1]: inhibiting effect of the contractile response of the reference agonist
